The values below come from patent US20240208940A1, “SMALL-MOLECULE INHIBITORS FOR BETA-CATENIN/BCELL LYMPHOMA 9 PROTEIN-PROTEIN INTERACTION” (H. LEE MOFFITT CANCER CENTER AND RESEARCH INSTITUTE, INC., priority 2021, published 2024).

Counter-ions that a name gives are not always drawn.

In the test the target is β-catenin/BCL9 PPI (Homo sapiens (Human), UniProt P35222). The experiment in a line: AlphaScreen competitive inhibition assay of β-catenin/BCL9 PPI. The test is classed as binding. Particulars: mean ± standard deviation (n = 3); for Ki: derived from IC50, read-out: Ki ± SD. As for the experimental part: AlphaScreen Assays of β-Catenin and BCL9 Interaction. Experiments were performed in white opaque 384-well plates from PerkinElmer (Waltham, MA), and the samples were read on a Biotek Synergy 2 plate reader (Winooski, VT) with excitation at 680 nm and emission at 570 nm. The standard AlphaScreen protocol was used with a sensitivity setting of 200. All dilutions were made in 1× assay buffer containing 25 mM Hepes (pH 7.4), 100 mM NaCl, 0.01% Triton X-100 and 0.1% BSA to minimize nonspecific interactions. For the competitive inhibition assays of β-catenin/BCL9 PPI, the negative control (equivalent to 0% inhibition) refers to 5.0 nM biotinylated BCL9, 50 nM His6-tagged β-catenin, and 10 μg/mL donor and acceptor beads in a final volume of 25 μL assay buffer, but no tested inhibitor present. The positive control (equivalent to 100% inhibition) refers to 5.0 nM biotinylated BCL9 and 10 μg/mL donor and acceptor beads in a final volume of 25 μL assay buffer.
Sequence of β-catenin/BCL9 PPI (P35222 whole entry): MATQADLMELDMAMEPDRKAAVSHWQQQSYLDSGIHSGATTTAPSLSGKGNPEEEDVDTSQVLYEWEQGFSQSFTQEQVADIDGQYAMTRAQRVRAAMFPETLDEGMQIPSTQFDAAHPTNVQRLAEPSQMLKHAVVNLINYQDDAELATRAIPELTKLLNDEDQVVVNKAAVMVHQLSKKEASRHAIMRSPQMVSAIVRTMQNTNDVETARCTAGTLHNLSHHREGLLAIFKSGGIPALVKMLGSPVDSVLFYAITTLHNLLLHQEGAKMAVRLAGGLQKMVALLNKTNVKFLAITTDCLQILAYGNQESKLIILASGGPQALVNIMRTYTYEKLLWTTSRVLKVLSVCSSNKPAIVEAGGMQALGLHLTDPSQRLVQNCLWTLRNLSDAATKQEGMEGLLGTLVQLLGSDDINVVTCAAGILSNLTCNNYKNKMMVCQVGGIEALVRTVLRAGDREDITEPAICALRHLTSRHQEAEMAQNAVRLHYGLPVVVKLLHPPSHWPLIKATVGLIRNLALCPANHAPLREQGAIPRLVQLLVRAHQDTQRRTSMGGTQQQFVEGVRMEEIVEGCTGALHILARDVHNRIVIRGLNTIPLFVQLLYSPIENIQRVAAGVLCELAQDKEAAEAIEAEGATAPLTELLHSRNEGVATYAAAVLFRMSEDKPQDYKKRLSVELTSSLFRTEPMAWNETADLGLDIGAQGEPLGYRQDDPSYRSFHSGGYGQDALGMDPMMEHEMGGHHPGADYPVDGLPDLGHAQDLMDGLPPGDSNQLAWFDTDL
For the β-catenin/BCL9 assay, 5 nM biotinylated BCL9 and 50 nM His6-tagged β-catenin were incubated in assay buffer for 30 min. Different concentrations of the tested inhibitor were added and incubated in 20 μL assay buffer for another 1 h. All of the assay plates were covered and gently mixed on an orbital shaker. The donor and acceptor beads were then added to the plates to a final concentration of 10 μg/mL in 25 μL assay buffer. The mixture was incubated for 1 h before detection. The IC50 value was determined by nonlinear least-square analysis of GraphPad Prism 8.0. The Ki values were derived from the IC50 values using a method reported by Wang and coworkers.^65 The equation used is Ki=[I]50/([L]50/Kd+[P]0/Kd+1) (Where [I]50 denotes the concentration of the free inhibitor at 50% inhibition, [L]50 is the concentration of the free labeled ligand at 50% inhibition, [P]0 is the concentration of the free protein at 0% inhibition, and Kd is the dissociation constant of the protein-ligand complex). All of the experiments were performed in triplicate and carried out in the presence of 1% DMSO for small-molecule inhibitors. Each compound was assayed at least by three independent experiments. The results were expressed as mean±standard deviation.
(In general: In Alpha technology, singlet oxygen from a donor bead excites a nearby acceptor bead.)

With `O=C(c1ccc(O[C@H]2CCNC2)c(C2CCCCC2)c1)N1CCC(Oc2cc(F)cc(N3CCC4(CC3)CNC4)c2)CC1` [Compound 3, (S)-(3-cyclohexyl-4-(pyrrolidin-3-yloxy)phenyl)(4-(3-fluoro-5-(2,7-diazaspiro[3.5]nonan-7-yl)phenoxy)piperidin-1-yl)methanone ditrifluoroacetic acid], the Ki (commonly a measure of affinity in units of concentration, obtained from inhibition or displacement) was more than 84 µM and the IC50 (commonly the concentration that gives 50% inhibition) was more than 100 µM.
For `O=C(c1ccc(O[C@H]2CCNC2)c(C2CCCCC2)c1)N1CCC(Oc2cc(F)cc(N3C[C@H]4CNC[C@H]4C3)c2)CC1` [Compound 4, (S)-(3-cyclohexyl-4-(((S)-pyrrolidin-3-yl)oxy)phenyl)(4-(3-fluoro-5-((3aR,6aS)-hexahydropyrrolo[3,4-c]pyrrol-2(1H)-yl)phenoxy)piperidin-1-yl)methanone ditrifluoroacetic acid], the Ki is more than 84 µM and the IC50 was more than 100 µM.
The like results for `O=C(c1ccc(O[C@H]2CCNC2)c(C2CCCCC2)c1)N1CCC(Oc2cc(F)cc(N3CCC4(CCNC4)C3)c2)CC1` (stereo partly drawn) [Compound 5, (3-cyclohexyl-4-(((S)-pyrrolidin-3-yl)oxy)phenyl)(4-(3-fluoro-5-(2,7-diazaspiro[4.4]nonan-2-yl)phenoxy)piperidin-1-yl)methanone ditrifluoroacetic acid] were, in that order, not above 40 µM and not above 40 µM.
With `O=C(c1ccc(OC2CCNCC2)c(C2CCCCC2)c1)N1CCC(Oc2cc(F)cc(N3CCNCC3)c2)CC1` [Compound 6, (3-cyclohexyl-4-(piperidin-4-yloxy)phenyl)(4-(3-fluoro-5-(piperazin-1-yl)phenoxy)piperidin-1-yl)methanone ditrifluoroacetic acid], the Ki is more than 84 µM and the IC50 is more than 100 µM.
The like results for `O=C(c1ccc(O[C@@H]2CCNC2)c(C2CCCCC2)c1)N1CCC(Oc2cc(F)cc(N3CCNCC3)c2)CC1` [Compound 7, (R)-(3-cyclohexyl-4-(pyrrolidin-3-yloxy)phenyl)(4-(3-fluoro-5-(piperazin-1-yl)phenoxy)piperidin-1-yl)methanone dihydrochloride] were, in that order, not above 60 µM and not above 70 µM.
The like results for `O=C(c1ccc(O[C@H]2CCNC2)c(-c2ccccc2)c1)N1CCC(Oc2cc(F)cc(N3CCNCC3)c2)CC1` [Compound 8, (S)-(4-(3-fluoro-5-(piperazin-1-yl)phenoxy)piperidin-1-yl)(6-(pyrrolidin-3-yloxy)-[1,1′-biphenyl]-3-yl)methanone dihydrochloride] were, in that order, not above 50 µM and not above 50 µM.
Take `O=C(c1ccc(O[C@H]2CCNC2)c(-c2ccc(C(F)(F)F)cc2)c1)N1CCC(Oc2cc(F)cc(N3CCNCC3)c2)CC1` [Compound 9, (S)-(4-(3-fluoro-5-(piperazin-1-yl)phenoxy)piperidin-1-yl)(6-(pyrrolidin-3-yloxy)-4′-(trifluoromethyl)-[1,1′-biphenyl]-3-yl)methanone dihydrochloride]: the Ki is not above 20 µM and the IC50 is not above 20 µM.
Turning to `CC(C)(C)c1ccc(-c2cc(C(=O)N3CCC(Oc4cc(F)cc(N5CCNCC5)c4)CC3)ccc2O[C@H]2CCNC2)cc1` [Compound 10, (S)-(4′-(tert-butyl)-6-(pyrrolidin-3-yloxy)-[1,1′-biphenyl]-3-yl)(4-(3-fluoro-5-(piperazin-1-yl)phenoxy)piperidin-1-yl)methanone dihydrochloride], the Ki was not above 20 µM and the IC50 is not above 20 µM.
For the molecule `O=C(c1ccc(O[C@H]2CCNC2)c(-c2ccc3ccsc3c2)c1)N1CCC(Oc2cc(F)cc(N3CCNCC3)c2)CC1` [Compound 11, (S)-(3-(benzo[b]thiophen-6-yl)-4-(pyrrolidin-3-yloxy)phenyl)(4-(3-fluoro-5-(piperazin-1-yl)phenoxy)piperidin-1-yl)methanone dihydrochloride], the Ki was not above 5 µM and the IC50 is not above 5 µM.
As for `O=C(c1ccc(O[C@H]2CCNC2)c(-c2ccc3ccccc3c2)c1)N1CCC(Oc2cc(F)cc(N3CCNCC3)c2)CC1` [Compound 12, (S)-(4-(3-fluoro-5-(piperazin-1-yl)phenoxy)piperidin-1-yl)(3-(naphthalen-2-yl)-4-(pyrrolidin-3-yloxy)phenyl)methanone dihydrochloride], the Ki was not above 5 µM and the IC50 was not above 5 µM.
In the case of `Cn1cc(-c2cc(C(=O)N3CCC(Oc4cc(F)cc(N5CCNCC5)c4)CC3)ccc2O[C@H]2CCNC2)cn1` [Compound 13, (S)-(4-(3-fluoro-5-(piperazin-1-yl)phenoxy)piperidin-1-yl)(3-(1-methyl-1H-pyrazol-4-yl)-4-(pyrrolidin-3-yloxy)phenyl)methanone dihydrochloride], the Ki is not above 10 µM and the IC50 was not above 10 µM.
For `O=C(c1ccc(O[C@H]2CCNC2)c(-c2ccc3[nH]ncc3c2)c1)N1CCC(Oc2cc(F)cc(N3CCNCC3)c2)CC1` [Compound 14, (S)-(3-(1H-indazol-5-yl)-4-(pyrrolidin-3-yloxy)phenyl)(4-(3-fluoro-5-(piperazin-1-yl)phenoxy)piperidin-1-yl)methanone dihydrochloride], the Ki is not above 10 µM and the IC50 was not above 10 µM.
Turning to `O=C(c1ccc(O[C@H]2CCNC2)c(-c2ccc3cn[nH]c3c2)c1)N1CCC(Oc2cc(F)cc(N3CCNCC3)c2)CC1` [Compound 15, (S)-(3-(1H-indazol-6-yl)-4-(pyrrolidin-3-yloxy)phenyl)(4-(3-fluoro-5-(piperazin-1-yl)phenoxy)piperidin-1-yl)methanone dihydrochloride], the Ki was not above 20 µM and the concentration for half-maximal inhibition (IC50) is not above 20 µM.
Regarding `O=C(c1ccc(O[C@H]2CCNC2)c(-c2ccc3[nH]cnc3c2)c1)N1CCC(Oc2cc(F)cc(N3CCNCC3)c2)CC1` [Compound 16, (S)-(3-(1H-benzo[d]imidazol-5-yl)-4-(pyrrolidin-3-yloxy)phenyl)(4-(3-fluoro-5-(piperazin-1-yl)phenoxy)piperidin-1-yl)methanone dihydrochloride], the Ki is not above 50 µM and the IC50 was not above 50 µM.
Turning to `O=C(c1ccc(O[C@H]2CCNC2)c(-c2cn[nH]c2)c1)N1CCC(Oc2cc(F)cc(N3CCNCC3)c2)CC1` [Compound 17, (S)-(3-(1H-pyrazol-4-yl)-4-(pyrrolidin-3-yloxy)phenyl)(4-(3-fluoro-5-(piperazin-1-yl)phenoxy)piperidin-1-yl)methanone dihydrochloride], the Ki was not above 2 µM and the IC50 was not above 2 µM.
For the molecule `O=C(c1ccc(O[C@H]2CCNC2)c(C2CCOCC2)c1)N1CCC(Oc2cc(F)cc(N3CCNCC3)c2)CC1` [Compound 20, (S)-(4-(3-fluoro-5-(piperazin-1-yl)phenoxy)piperidin-1-yl)(4-(pyrrolidin-3-yloxy)-3-(tetrahydro-2H-pyran-4-yl)phenyl)methanone dihydrochloride], the Ki is approximately 84 µM and the IC50 is approximately 100 µM.
The matching figures for `O=C(c1ccc(O[C@H]2CCNC2)c(C2CCN(C(=O)C3CC3)CC2)c1)N1CCC(Oc2cc(F)cc(N3CCNCC3)c2)CC1` [Compound 21, (S)-(3-(1-(cyclopropanecarbonyl)piperidin-4-yl)-4-(pyrrolidin-3-yloxy)phenyl)(4-(3-fluoro-5-(piperazin-1-yl)phenoxy)piperidin-1-yl)methanone dihydrochloride]: not above 50 µM and not above 50 µM.
The like results for `CC(C)C(=O)N1CCC(c2cc(C(=O)N3CCC(Oc4cc(F)cc(N5CCNCC5)c4)CC3)ccc2O[C@H]2CCNC2)CC1` [Compound 22, (S)-1-(4-(5-(4-(3-fluoro-5-(piperazin-1-yl)phenoxy)piperidine-1-carbonyl)-2-(pyrrolidin-3-yloxy)phenyl)piperidin-1-yl)-2-methylpropan-1-one dihydrochloride] were, in that order, not above 50 µM and not above 50 µM.
Take `CC(O)C(=O)N1CCC(c2cc(C(=O)N3CCC(Oc4cc(F)cc(N5CCNCC5)c4)CC3)ccc2O[C@H]2CCNC2)CC1` (stereo partly drawn) [Compound 23, 1-(4-(5-(4-(3-fluoro-5-(piperazin-1-yl)phenoxy)piperidine-1-carbonyl)-2-(((S)-pyrrolidin-3-yl)oxy)phenyl)piperidin-1-yl)-2-hydroxypropan-1-one dihydrochloride]: the Ki is not above 50 µM and the IC50 was not above 50 µM.
In the case of `CC(C)(C)C(=O)N1CCC(c2cc(C(=O)N3CCC(Oc4cc(F)cc(N5CCNCC5)c4)CC3)ccc2O[C@H]2CCNC2)CC1` [Compound 24, (S)-1-(4-(5-(4-(3-fluoro-5-(piperazin-1-yl)phenoxy)piperidine-1-carbonyl)-2-(pyrrolidin-3-yloxy)phenyl)piperidin-1-yl)-2,2-dimethylpropan-1-one dihydrochloride], the Ki was approximately 84 µM and the IC50 is approximately 100 µM.
